Assay results reported in paper PMC10082830, “A tailored tetravalent peptide displays dual functions to inhibit amyloid β production and aggregation” (Communications Biology, 2023).
Ends that are not written are not given here.

Assays:
Aβ42 [1] = target: T1, Aβ42 (Homo sapiens, UniProt P05067); conditions: equivalent molar concentration, after 8 h of incubation, Thioflavin T-binding assay; cited from earlier work
T1 construct: the plate was incubated with various concentrations of Aβ1–28, Aβ40, or Aβ42 (Peptide Institute); purchased Peptide Institute
T1 sequence (P05067 672-713 limits assumed): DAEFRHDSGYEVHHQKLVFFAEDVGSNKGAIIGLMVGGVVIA

Aβ42 [2] = target: T1, Aβ42; test: ELISA binding between Aβ and LME peptides; conditions: LME-mono (33 µM) applied on plate, n = 3
Description: (§1) The indicated amounts of LME-tet (8.3 µM) or LME-mono (33 µM) were applied onto each well of a regular 96-well ELISA plate (Thermo Fisher Scientific) and incubated overnight for 24 h. After blocking, the plate was incubated with various concentrations of Aβ1–28, Aβ40, or Aβ42 (Peptide Institute) for 2 h at room temperature. Bound Aβ was detected using mouse monoclonal anti-human Aβ antibody 82E1 (Immuno-Biological Laboratories Co., Ltd.) and HRP-conjugated horse anti-mouse IgG antibody (Cell Signaling Technology).

Aβ1–28 = test: ELISA binding between Aβ and LME peptides; conditions: LME-tet (8.3 µM) or LME-mono (33 µM) applied on plate, Aβ 2 h at room temperature, n = 3
Description: as §1

Aβ40 = target: T2, Aβ40 (Homo sapiens, UniProt P05067); test: ELISA binding between Aβ and LME peptides; conditions: LME-mono (33 µM) applied on plate, n = 4
T2 construct: purchased Peptide Institute
T2 sequence (P05067 672-711 limits assumed): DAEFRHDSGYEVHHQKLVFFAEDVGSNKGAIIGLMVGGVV
Description: as §1

7WD10 cells = test: Lysosomal protease inhibitor treatment of 7WD10 cells, western blot; assay type: cell-based, Chinese Hamster; conditions: LME-tet (25 µM) or LME-mono (100 µM), lysosomal PI cocktail (E-64, leupeptin), 48 h
Aβ42 [3] = target: T1, Aβ42; test: Circular dichroism spectroscopy of Aβ42 conformational change; conditions: Aβ42 20 µM, peptide 2 µM, 50 mM sodium phosphate buffer pH 7.4, 37 °C, far-UV CD, molar ellipticity at 217 nm
Description: Fig. 5 LME-tet inhibits the conformational change and subsequent fibrillation of Aβ42. a Binding of LME-tet to extracellular Aβ. Culture medium from 7WD10 cells recovered after 48 h of growth was treated with biotinylated LME-tet (50 µM) or LME-mono (200 µM). Medium was then incubated with streptavidin beads, and coprecipitating Aβ40 and Aβ42 were analyzed by western blot using anti-Aβ or anti-Aβ42-specific antibody. b Time-dependent conformational change in Aβ42 (20 µM) in the presence of LME-tet (2 µM, lower left panel) or LME-mono (2 µM, upper right panel). Far-UV circular dichroism (CD) spectra (wavelength 190–250 nm) were measured at the indicated time points. […] Data represent the mean ± SE; n = 3–4. c Fibrillation profiles of Aβ42 in the presence of LME-tet (2 µM) or LME-mono (2 µM), measured by Thioflavin T-binding assay. […] Data represent the mean ± SE; n = 3. d Fibrillation profiles of Aβ42 in the presence of LME-tet (2 µM) or LME-mono (2 µM), analyzed by electron microscopy; representative images at ×10 K, ×50 K, and ×200 K magnification (left, right, and center, respectively) are shown. Scale bars indicate 2 µm, 400 nm, and 100 nm, respectively. e Effects of LME-tet (2 µM) on growth of Aβ42 fibril in the presence of 2% (v/v) Aβ42 fibril-seed, measured by the Thioflavin T-binding assay. […]

[4] = system: 7WD10 Chinse Hamster Ovary (CHO) cells stably expressing human APP; test: Aβ production in 7WD10 cells, western blot of culture medium and cell lysates; assay type: cell-based, Chinese Hamster; conditions: 48 h, tetravalent peptides 50 µM, LME-mono 100 and 200 µM, n = 3
Description: 7WD10 Chinse Hamster Ovary (CHO) cells were treated with each tetravalent peptide (50 µM) for 48 h; cell lysates (for intracellular C99 and Aβ) and culture medium (for extracellular Aβ) from peptide-treated and vehicle control-treated cells were analyzed by western blot. Data are graphed as the percentage of the control value, showing the mean ± SE; n = 3. Significance vs. vehicle was calculated by analysis of variance (ANOVA), followed by one-sided Dunnett’s test; *P < 0.05, **P < 0.01. c Effect of increasing concentrations of LME-tet on Aβ production (left panel). 7WD10 cells were treated with vehicle control or LME-tet at the indicated concentrations for 48 h, and the culture medium was analyzed by western blot. Data are graphed as the percentage of the control value, showing the mean ± SE; n = 3. Significance vs. vehicle was calculated by ANOVA, followed by one-sided Dunnett’s test; *P < 0.05, **P < 0.01. Effect of LME-mono on Aβ production (right panels). 7WD10 cells were treated with vehicle control or LME-mono at the indicated concentrations for 48 h; cell lysates (for intracellular C99 and Aβ) and culture medium (for extracellular Aβ) were analyzed by western blot. […] Significance vs. vehicle was calculated by ANOVA, followed by one-sided Dunnett’s test; *P < 0.05. d Binding of LME-tet and LME-mono to Aβ1-28, Aβ40 and Aβ42 was measured by enzyme-linked immunosorbent assay (ELISA). […]

Substance	inhibition of fibrillation of Aβ42 (Aβ42 [1]) [%]	binding to Aβ42 (Aβ42 [2])	binding to Aβ1–28 (Aβ1–28)	binding to Aβ40 (Aβ40)	PI-dependent increase of intracellular APP, C99, Aβ, p62 and LC3-II (7WD10 cells)	conformational change of Aβ42 (β-sheet formation) (Aβ42 [3])	inhibitory effect on production of Aβ [4]
Ac-KL-NVF-NFA-NH2	40	–	–	–	–	–	–
PKLRMKE [LME-mono, monomeric peptide with the same motif, Pro-Lys-Leu-Arg-Met-Lys-Glu]	–	unable to bind	unable to bind	unable to bind	does not affect	no effect was observed	has no effect
